According to paper PMC10452110, “Indole-3-Acetamido-Polyamines as Antimicrobial Agents and Antibiotic Adjuvants” (Biomolecules, 2023):
pIC50: −log10 of the molar value. Like-named read-outs stand apart in the source and are kept apart here.

Experiments:
[1] = tested on: E. coli ATCC 25922; test: Enhancement of erythromycin action against E. coli; assay type: cell-based, Escherichia coli; conditions: erythromycin at 10.9 µM
Procedure: (§1) Antibiotic enhancer concentrations were determined using previously reported protocols.

[2] = tested on: Klebsiella pneumoniae (ATCC 700603); test: Intrinsic antimicrobial activity (MIC) against K. pneumoniae; assay type: cell-based
Procedure: (§2) The susceptibility of bacterial strains Staphylococcus aureus (ATCC 25923), Escherichia coli (ATCC 25922) and Pseudomonas aeruginosa (ATCC 27853) to antibiotics and compounds was determined using previously reported protocols. Additional antimicrobial evaluation against MRSA (ATCC 43300), Klebsiella pneumoniae (ATCC 700603), Acinetobacter baumannii (ATCC 19606), Candida albicans (ATCC 90028) and Cryptococcus neoformans (ATCC 208821) was undertaken at the Community for Open Antimicrobial Drug Discovery at The University of Queensland (Australia) according to their standard protocols, as reported previously.

[3] = tested on: Cryptococcus neoformans (ATCC 208821); test: Intrinsic antifungal activity (MIC) against C. neoformans; assay type: cell-based
Procedure: as §2

[4] = Cytotoxicity assay; assay type: cell-based; conditions: human; HEK293 cells; mean (n = 2); read-out: Cytotoxicity: concentration of compound at 50% cytotoxicity (IC50)
Procedure: Cytotoxicity assays were conducted using the protocols previously reported.

[5] = tested on: MRSA (ATCC 43300); test: Intrinsic antimicrobial activity (MIC) against MRSA; assay type: cell-based; conditions: Staphylococcus aureus, MRSA ATCC 43300; mean (n = 2); read-out: MIC MRSA
Procedure: as §2

[6] = tested on: Pseudomonas aeruginosa (ATCC 27853); test: Intrinsic antimicrobial activity (MIC) against P. aeruginosa; assay type: cell-based
Procedure: as §2

[7] = tested on: human red blood cells; test: Hemolytic assay; assay type: cell-based; conditions: mean (n = 2)
Procedure: Hemolysis assays were conducted using the protocols previously reported.

[8] = tested on: Staphylococcus aureus (ATCC 25923); test: Intrinsic antimicrobial activity (MIC) against S. aureus; assay type: cell-based
Procedure: as §2

[9] = tested on: Acinetobacter baumannii (ATCC 19606); test: Intrinsic antimicrobial activity (MIC) against A. baumannii; assay type: cell-based
Procedure: as §2

[10] = tested on: P. aeruginosa ATCC 27853; test: Enhancement of doxycycline action against P. aeruginosa; assay type: cell-based, Pseudomonas aeruginosa; conditions: doxycycline at 4.5 µM
Procedure: as §1

[11] = tested on: Escherichia coli (ATCC 25922); test: Intrinsic antimicrobial activity (MIC) against E. coli; assay type: cell-based
Procedure: as §2

[12] = tested on: Candida albicans (ATCC 90028); test: Intrinsic antifungal activity (MIC) against C. albicans; assay type: cell-based
Procedure: as §2

[13] = ATCC700603, K. pneumoniae ATCC 700603, mean (n = 2), read-out: MIC K. p
[14] = ATCC208821, C. neoformans ATCC 208821, mean (n = 2), read-out: MIC C. n
[15] = ATCC27853, P. aeruginosa ATCC 27853, mean (n = 3), read-out: MIC P. a
[16] = ATCC25923, S. aureus ATCC 25923, mean (n = 3), read-out: MIC S. a
[17] = ATCC19606, A. baumannii ATCC 19606, mean (n = 2), read-out: MIC A. b
[18] = ATCC25922, E. coli ATCC 25922, mean (n = 3), read-out: MIC E. c
[19] = ATCC90028, C. albicans ATCC 90028, mean (n = 2), read-out: MIC C. a

Row | Structure (SMILES) | Eryth/E. c: concentration required to restore erythromycin activity (combination MIC) [1] | MIC [2, 13] | MIC [3, 14] | pIC50 [4] | MIC [5] | MIC [6, 15] | Hemolysis: concentration of compound at 10% hemolytic activity (HC10) [7] | MIC [8, 16] | MIC [9, 17] | Dox/P. a fold change (ratio between intrinsic MIC of the test compound and combination MIC) [10] | Dox/P. a: concentration required to restore doxycycline activity (combination MIC) [10] | MIC [11, 18] | MIC [12, 19] | MIC ([2]; ATCC700603, read-out: MIC K. p) | MIC ([3]; ATCC208821, read-out: MIC C. n) | MIC ([6]; ATCC27853, read-out: MIC P. a) | MIC ([8]; ATCC25923, read-out: MIC S. a) | MIC ([9]; ATCC19606, read-out: MIC A. b) | MIC ([11]; ATCC25922, read-out: MIC E. c) | MIC ([12]; ATCC90028, read-out: MIC C. a)
1 | O=C(Cc1c[nH]c2ccccc12)NCCCNCCCCCCCCNCCCNC(=O)Cc1c[nH]c2ccccc12.O=C(O)C(F)(F)F.O=C(O)C(F)(F)F [Compound 14d, N^1,N^8-Bis(3-(2-(1H-indol-3-yl)acetamido)propyl)octane-1,8-diaminium 2,2,2-trifluoroacetate] | 250 µM | > 40 µM | ≤ 0.31 µM | < 4.40 | ≤ 0.31 µM | > 250 µM | 15.8 µM | 31.2 µM | > 40 µM | > 1 fold | 250 µM | 62.4 µM | > 40 µM | – | – | – | – | – | – | –
2 | O=C(Cc1c[nH]c2ccccc12)NCCCNCCCCCCCCCCNCCCNC(=O)Cc1c[nH]c2ccccc12.O=C(O)C(F)(F)F.O=C(O)C(F)(F)F [Compound 14e, N^1,N^10-Bis(3-(2-(1H-indol-3-yl)acetamido)propyl)decane-1,10-diaminium 2,2,2-trifluoroacetate] | 15.1 µM | – | – | < 4.41 | ≤ 0.3 µM | – | ≤0.30 µM | – | – | 4 fold | 15.1 µM | – | – | > 39 µM | ≤ 0.3 µM | 60.3 µM | 3.77 µM | > 39 µM | 15.1 µM | ≤ 0.3 µM
3 | O=C(Cc1c[nH]c2ccccc12)NCCCNCCCCCCCCCCCCNCCCNC(=O)Cc1c[nH]c2ccccc12.O=C(O)C(F)(F)F.O=C(O)C(F)(F)F [Compound 14f, N^1,N^12-Bis(3-(2-(1H-indol-3-yl)acetamido)propyl)dodecane-1,12-diaminium 2,2,2-trifluoroacetate] | 14.6 µM | > 37 µM | ≤ 0.29 µM | < 4.43 | ≤ 0.29 µM | 58.3 µM | ≤0.29 µM | 3.65 µM | > 37 µM | 4 fold | 14.6 µM | 29.2 µM | ≤ 0.29 µM | – | – | – | – | – | – | –
4 | O=C(Cc1c[nH]c2ccc(Br)cc12)NCCCNCCCCCCNCCCNC(=O)Cc1c[nH]c2ccc(Br)cc12.O=C(O)C(F)(F)F.O=C(O)C(F)(F)F [Compound 15b, N^1,N^6-Bis(3-(2-(5-bromo-1H-indol-3-yl)acetamido)propyl)hexane-1,6-diaminium 2,2,2-trifluoroacetate] | 53.7 µM | > 34 µM | < 0.2 µM | < 4.47 | < 0.2 µM | 215 µM | >34 µM | 13.4 µM | > 34 µM | 8 fold | 26.9 µM | 26.9 µM | 2.15 µM | – | – | – | – | – | – | –
5 | O=C(Cc1c[nH]c2ccc(Br)cc12)NCCCNCCCCCCCCNCCCNC(=O)Cc1c[nH]c2ccc(Br)cc12.O=C(O)C(F)(F)F.O=C(O)C(F)(F)F [Compound 15d, N^1,N^8-Bis(3-(2-(5-bromo-1H-indol-3-yl)acetamido)propyl)octane-1,8-diaminium 2,2,2-trifluoroacetate] | 52.2 µM | > 33 µM | ≤ 0.26 µM | < 4.48 | ≤ 0.26 µM | > 209 µM | 10.1 µM | 13 µM | > 33 µM | > 4 fold | 52.2 µM | 26.1 µM | 2.09 µM | – | – | – | – | – | – | –
6 | O=C(Cc1c[nH]c2ccc(Br)cc12)NCCCNCCCCCCCCCCNCCCNC(=O)Cc1c[nH]c2ccc(Br)cc12.O=C(O)C(F)(F)F.O=C(O)C(F)(F)F [Compound 15e, N^1,N^10-Bis(3-(2-(5-bromo-1H-indol-3-yl)acetamido)propyl)decane-1,10-diaminium 2,2,2-trifluoroacetate] | 12.7 µM | > 32 µM | ≤ 0.25 µM | < 4.49 | ≤ 0.25 µM | 50.7 µM | ≤0.25 µM | 6.33 µM | > 32 µM | 4 fold | 12.7 µM | 12.7 µM | ≤ 0.25 µM | – | – | – | – | – | – | –
7 | O=C(Cc1c[nH]c2ccc(Br)cc12)NCCCNCCCCCCCCCCCCNCCCNC(=O)Cc1c[nH]c2ccc(Br)cc12.O=C(O)C(F)(F)F.O=C(O)C(F)(F)F [Compound 15f, N^1,N^12-Bis(3-(2-(5-bromo-1H-indol-3-yl)acetamido)propyl)dodecane-1,12-diaminium 2,2,2-trifluoroacetate] | 24.6 µM | > 32 µM | ≤ 0.25 µM | 5.32 | ≤ 0.25 µM | 197 µM | ≤0.25 µM | 6.16 µM | 7.88 µM | 2 fold | 98.5 µM | 12.3 µM | ≤ 0.25 µM | – | – | – | – | – | – | –
8 | COc1ccc2[nH]cc(CC(=O)NCCCNCCCCCCNCCCNC(=O)Cc3c[nH]c4ccc(OC)cc34)c2c1.O=C(O)C(F)(F)F.O=C(O)C(F)(F)F [Compound 16b, N^1,N^6-Bis(3-(2-(5-methoxy-1H-indol-3-yl)acetamido)propyl)hexane-1,6-diaminium 2,2,2-trifluoroacetate] | 50 µM | > 38 µM | ≤ 0.3 µM | < 4.42 | 38 µM | > 200 µM | >38 µM | 50 µM | > 38 µM | > 8 fold | 25 µM | 100 µM | > 38 µM | – | – | – | – | – | – | –
9 | COc1ccc2[nH]cc(CC(=O)NCCCNCCCCCCCNCCCNC(=O)Cc3c[nH]c4ccc(OC)cc34)c2c1.O=C(O)C(F)(F)F.O=C(O)C(F)(F)F [Compound 16c, N^1,N^7-Bis(3-(2-(5-methoxy-1H-indol-3-yl)acetamido)propyl)heptane-1,7-diaminium 2,2,2-trifluoroacetate] | 50 µM | > 38 µM | 2.36 µM | < 4.42 | > 38 µM | > 200 µM | >38 µM | > 200 µM | > 38 µM | – | 12.5 µM | 25 µM | > 38 µM | – | – | – | – | – | – | –
10 | COc1ccc2[nH]cc(CC(=O)NCCCNCCCCCCCCNCCCNC(=O)Cc3c[nH]c4ccc(OC)cc34)c2c1.O=C(O)C(F)(F)F.O=C(O)C(F)(F)F [Compound 16d, N^1,N^8-Bis(3-(2-(5-methoxy-1H-indol-3-yl)acetamido)propyl)octane-1,8-diaminium 2,2,2-trifluoroacetate] | 6.25 µM | > 37 µM | ≤ 0.29 µM | < 4.43 | 2.32 µM | 100 µM | >37 µM | 25 µM | > 37 µM | – | 6.25 µM | 6.25 µM | > 37 µM | – | – | – | – | – | – | –
